Data: US12440496B2, “Natriuretic peptide receptor a agonists useful for the treatment of cardiometabolic diseases, kidney disease and diabetes” (Merck Sharp & Dohme LLC, priority 2019, dated 2025)
Where a name gives a salt, the structure may show the parent alone.

Biological target: T1, hNPRA (Homo sapiens, UniProt P16066)
T1 construct: expressed in transfected cells
T1 sequence (P16066 33-1061): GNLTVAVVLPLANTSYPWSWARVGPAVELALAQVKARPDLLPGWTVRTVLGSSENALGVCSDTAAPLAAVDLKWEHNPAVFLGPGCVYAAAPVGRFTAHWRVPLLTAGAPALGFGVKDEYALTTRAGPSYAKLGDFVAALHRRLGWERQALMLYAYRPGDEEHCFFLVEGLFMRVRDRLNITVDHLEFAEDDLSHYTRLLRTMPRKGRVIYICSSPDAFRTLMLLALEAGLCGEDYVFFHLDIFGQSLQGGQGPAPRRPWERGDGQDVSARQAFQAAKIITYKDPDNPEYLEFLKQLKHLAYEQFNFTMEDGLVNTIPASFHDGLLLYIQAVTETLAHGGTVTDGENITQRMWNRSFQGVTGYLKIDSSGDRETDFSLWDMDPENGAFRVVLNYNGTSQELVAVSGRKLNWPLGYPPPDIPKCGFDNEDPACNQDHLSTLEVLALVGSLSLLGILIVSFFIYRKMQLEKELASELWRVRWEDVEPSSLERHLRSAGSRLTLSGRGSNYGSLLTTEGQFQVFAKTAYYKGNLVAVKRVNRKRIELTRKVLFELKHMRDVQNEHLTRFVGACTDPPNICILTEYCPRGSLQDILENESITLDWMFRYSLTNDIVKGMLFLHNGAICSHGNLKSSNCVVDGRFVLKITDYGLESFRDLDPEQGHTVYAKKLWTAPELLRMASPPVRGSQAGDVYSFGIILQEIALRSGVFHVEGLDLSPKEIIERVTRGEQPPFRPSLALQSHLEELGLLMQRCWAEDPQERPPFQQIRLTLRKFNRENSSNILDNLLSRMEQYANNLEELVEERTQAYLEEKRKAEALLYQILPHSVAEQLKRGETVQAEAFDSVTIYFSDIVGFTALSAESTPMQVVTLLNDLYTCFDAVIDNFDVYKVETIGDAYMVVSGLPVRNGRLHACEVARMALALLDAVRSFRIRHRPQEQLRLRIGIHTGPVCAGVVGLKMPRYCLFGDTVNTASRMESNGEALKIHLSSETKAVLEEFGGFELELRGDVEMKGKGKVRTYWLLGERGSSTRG
Experiment: NPRA Functional Cell Assay (cGMP HTRF, NPRA HEK JumpIn stable cells)
Format: cell-based
Settings: cGMP production, 1 hour at 37° C., 10-point dose response
Outline: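 cGMP HTRF read-out after 1 hour compound treatment at 37° C. of human NPRA-expressing HEK JumpIn cells, 1500 cells/well, in buffer with phosphodiesterase inhibitors IBMX and RO20 (100 uM each). Signal converted to [cGMP] by calibration curve; EC50s fitted by 4-parameter logistic; 50 nM h-ANP as positive response.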

SMILES	EC50 [nM]
CC(C)(C)[C@H]1CCc2nc3sc(C(=O)N[C@H](CCN4CCC(O)CC4)c4cccc(C(=O)NC5CNC(=O)C5)c4)nc3cc2C1 (mixture of isomers) [Example 155, rac-(7S)-7-tert-butyl-N-[rac-(1R)-3-(4-hydroxy-1-piperidyl)-1-[3-[(5-oxopyrrolidin-3-yl)carbamoyl]phenyl]propyl]-5,6,7,8-tetrahydrothiazolo[5,4-b]quinoline-2-carboxamide]	766
CC(C)(C)[C@H]1CCc2nc3sc(C(=O)N[C@H](CCN4CCC(O)CC4)c4cccc(C(=O)N5CC(O)(C(F)(F)F)C5)c4)nc3cc2C1 (racemic) [Example 153, rac-(7S)-7-tert-butyl-N-[rac-(1R)-3-(4-hydroxy-1-piperidyl)-1-[3-[3-hydroxy-3-(trifluoromethyl)azetidine-1-carbonyl]phenyl]propyl]-5,6,7,8-tetrahydrothiazolo[5,4-b]quinoline-2-carboxamide]	716
CC1(O)CN(C(=O)c2cccc([C@@H](CCN3CCC(O)CC3)NC(=O)c3nc4cc5c(nc4s3)CC[C@H](C(C)(C)C)C5)c2)C1 (racemic) [Example 145, rac-(7S)-7-tert-butyl-N-[rac-(1R)-1-[3-(3-hydroxy-3-methyl-azetidine-1-carbonyl)phenyl]-3-(4-hydroxy-1-piperidyl)propyl]-5,6,7,8-tetrahydrothiazolo[5,4-b]quinoline-2-carboxamide]	553
COC(=O)C1CCN(CC[C@@H](NC(=O)c2nc3cc4c(nc3s2)CC[C@@](F)(C(C)C)C4)c2ccc(-c3ccnnc3)nc2)CC1 [Example 269, methyl 1-((R)-3-((S)-7-fluoro-7-isopropyl-5,6,7,8-tetrahydrothiazolo[5,4-b]quinoline-2-carboxamido)-3-(6-(pyridazin-4-yl)pyridin-3-yl)propyl)piperidine-4-carboxylate]	1850
CN(C)S(=O)(=O)Nc1ccc([C@@H](CCN2CC=CCC2)NC(=O)c2nc3cc4c(nc3s2)CC[C@H](C(C)(C)C)C4)cn1 (racemic) [Example 208, rac-(7S)-7-tert-butyl-N-[rac-(1R)-1-[6-(dimethylsulfamoylamino)-3-pyridyl]-3-(1,2,3,6-tetrahydropyridin-1-ium-1-yl)propyl]-5,6,7,8-tetrahydrothiazolo[5,4-b]quinoline-2-carboxamide; 2,2,2-trifluoroacetate]	712
CN(C)CC[C@@H](NC(=O)c1nc2cc3c(nc2s1)CC[C@H](C(C)(C)C)C3)c1cccc(C(=O)N2CCOCC2)c1 (racemic) [Example 96, rac-(7S)-7-tert-butyl-N-[rac-(1R)-3-(dimethylamino)-1-[3-(morpholine-4-carbonyl)phenyl]propyl]-5,6,7,8-tetrahydrothiazolo[5,4-b] quinoline-2-carboxamide]	1020
CN1CCC(CNC(=O)c2cccc([C@@H](CCN3CCC(O)CC3)NC(=O)c3nc4cc5c(nc4s3)CC[C@H](C(C)(C)C)C5)c2)C1 (mixture of isomers) [Example 142, rac-(7S)-7-tert-butyl-N-[rac-(1R)-3-(4-hydroxy-1-piperidyl)-1-[3-[(1-methylpyrrolidin-3-yl)methylcarbamoyl]phenyl]propyl]-5,6,7,8-tetrahydrothiazolo[5,4-b]quinoline-2-carboxamide]	258
CC(C)(C)[C@H]1CCc2nc3sc(C(=O)N[C@H](CCN4CCC(O)CC4)c4cccc(C(=O)NCCN5CCOCC5)c4)nc3cc2C1 (racemic) [Example 150, rac-(7S)-7-tert-butyl-N-[rac-(1R)-3-(4-hydroxy-1-piperidyl)-1-[3-(2-morpholinoethylcarbamoyl)phenyl]propyl]-5,6,7,8-tetrahydrothiazolo[5,4-b]quinoline-2-carboxamide]	682
CC(C)(C)[C@H]1CCc2nc3sc(C(=O)N[C@H](CCNC4CCOCC4)c4ccccc4)cc3cc2C1 [Example 248, (6S)-6-tert-butyl-N-[(1R)-1-phenyl-3-(tetrahydro-2H-pyran-4-ylamino)propyl]-5,6,7,8-tetrahydrothieno[2,3-b]quinoline-2-carboxamide]	6320
COC1CCN(CC[C@@H](NC(=O)c2nc3cc4c(nc3s2)CC[C@H](C(C)(C)C)C4)c2cccc(C(=O)NC3CN(C)C3)c2)CC1 (racemic) [Example 109, rac-(7S)-7-tert-butyl-N-[rac-(1R)-3-(4-methoxy-1-piperidyl)-1-[3-[(1-methylazetidin-1-ium-3-yl)carbamoyl]phenyl]propyl]-5,6,7,8-tetrahydrothiazolo[5,4-b] quinoline-2-carboxamide; 2,2,2-trifluoroacetate]	629

Other lines, results leading:

EC50 [nM]	SMILES
408	CC(C)(C)C1CCc2nc3sc(C(=O)NC(CCN4CC5C(CO)C5C4)c4ccc(-c5ccc(=O)[nH]c5)cc4)cc3cc2C1 (racemic) [Example 27, rac-(6S)-6-tert-butyl-N-[rac-(1R)-3-[6-(hydroxymethyl)-3-azoniabicyclo[3.1.0]hexan-3-yl]-1-[4-(6-oxo-1H-pyridin-3-yl)phenyl]propyl]-5,6,7,8-tetrahydrothieno[2,3-b]quinoline-2-carboxamide;formate]
655	CC(C)(C)[C@H]1CCc2nc3sc(C(=O)N[C@H](CCN4CCC5(CC4)CNC(=O)O5)c4ccc(-c5ccc(=O)[nH]c5)cc4)cc3cc2C1 (racemic) [Example 40, rac-(6S)-6-tert-butyl-N-[rac-(1R)-3-(2-oxo-1-oxa-3-aza-8-azoniaspiro[4.5]decan-8-yl)-1-[4-(6-oxo-1H-pyridin-3-yl)phenyl]propyl]-5,6,7,8-tetrahydrothieno[2,3-b]quinoline-2-carboxamide;formate]
292	CC(C)(C)[C@H]1CCc2nc3sc(C(=O)N[C@H](CCN)c4cccc(C(=O)N[C@H]5CCNC5)c4)cc3cc2C1 [Example 225]
802	CC(C)(C)[C@H]1CCc2nc3sc(C(=O)N[C@H](CCN4CCC(O)CC4)c4ccc(-n5cncn5)cc4)nc3cc2C1 [Example 84, (7S)-7-tert-butyl-N-[(1R)-3-(4-hydroxy-piperidin-1-ium-1-yl)-1-[4-(1,2,4-triazol-1-yl)phenyl]propyl]-5,6,7,8-tetra-hydrothiazolo[5,4-b] quinoline-2-carboxamide; 2,2,2-trifluoro-acetate]
473	CC(C)(C)[C@H]1CCc2nc3sc(C(=O)N[C@H](CCN4CCC[C@H](O)[C@H]4CO)c4ccc(-c5ccc(=O)[nH]c5)cc4)cc3cc2C1 (racemic) [Example 31, rac-(6S)-6-tert-butyl-N-[rac-(1R)-1-[4-(6-oxo-1H-pyridin-3-yl)phenyl]-3-[rac-(2R,3S)-3-hydroxy-2-(hydroxymethyl)piperidin-1-ium-1-yl]propyl]-5,6,7,8-tetrahydrothieno[2,3-b]quinoline-2-carboxamide; formate]
1730	CC(C)(C)[C@H]1CCc2nc3sc(C(=O)N[C@H](CCN4CCCCC4)c4ccc(-c5cnc(O)c(N)c5)cc4)cc3cc2C1 [Example 241, (6S)-N-{(1R)-1-[4-(5-amino-6-hydroxypyridin-3-yl)phenyl]-3-piperidin-1-ylpropyl}-6-tert-butyl-5,6,7,8-tetrahydrothieno[2,3-b]quinoline-2-carboxamide]
140	CC(C)(C)[C@H]1CCc2nc3sc(C(=O)N[C@H](CCN4CCC(O)CC4)c4ccc(-c5c[nH]c(=O)c(F)c5)cc4)nc3cc2C1 [Example 236, (S)-7-(tert-butyl)-N-((R)-1-(4-(5-fluoro-6-oxo-1,6-dihydropyridin-3-yl)phenyl)-3-(4-hydroxypiperidin-1-yl)propyl)-5,6,7,8-tetrahydrothiazolo[5,4-b]quinoline-2-carboxamide]
914	Cn1nccc1-c1ccc([C@@H](CCN2CCC(O)CC2)NC(=O)c2nc3cc4c(nc3s2)CC[C@H](C(C)(C)C)C4)cc1 (racemic) [Example 81, rac-(7S)-7-tert-butyl-N-[rac-(1R)-3-(4-hydroxypiperidin-1-ium-1-yl)-1-[4-(2-methylpyrazol-3-yl)phenyl]propyl]-5,6,7,8-tetrahydrothiazolo[5,4-b]quinoline-2-carboxamide; formate]
1660	Cc1nc(O)ccc1-c1ccc([C@@H](CCN2CCCCC2)NC(=O)c2cc3cc4c(nc3s2)CC[C@H](C(C)(C)C)C4)cc1 [Example 240, (6S)-6-tert-butyl-N-{(1R)-1-[4-(6-hydroxy-2-methylpyridin-3-yl)phenyl]-3-piperidin-1-ylpropyl}-5,6,7,8-tetrahydrothieno[2,3-b]quinoline-2-carboxamide]
